Reference: ChEMBL document CHEMBL3425446, “Isolation, semi-synthesis and bio-evaluation of spatane derivatives from the brown algae Stoechospermum marginatum” (Bioorg Med Chem Lett, 2015)
≈ marks a conversion by molar mass, not a printed value. Calls of active or inactive are those of the source. No cut-off for these calls is given here.

Experiments:
Micrococcus luteus [1] = assay: Antibacterial activity against Micrococcus luteus assessed as compound concentration required to complete growth inhibition at 8 hrs by tube dilution method; format: functional
[2] = Cytotoxicity against human U937 cells assessed as decrease in cell number after 24 hrs by MTT assay; format: functional, cell-based; settings: U-937, 24 h
Micrococcus luteus [3] = assay: Antibacterial activity against Micrococcus luteus assessed as growth inhibition at 0.5 mg/ml after 24 hrs by well diffusion method; format: functional; settings: read-out: DIZ
Bacillus subtilis [4] = assay: Antibacterial activity against Bacillus subtilis assessed as compound concentration required to complete growth inhibition at 8 hrs by tube dilution method; format: functional
THP-1 = assay: Cytotoxicity against human THP1 cells assessed as decrease in cell number after 24 hrs by MTT assay; format: functional, cell-based; settings: THP-1, 24 h
Escherichia coli [5] = assay: Antibacterial activity against Escherichia coli assessed as compound concentration required to complete growth inhibition at 8 hrs by tube dilution method; format: functional
Escherichia coli [6] = assay: Antibacterial activity against Escherichia coli assessed as growth inhibition at 0.5 mg/ml after 24 hrs by well diffusion method; format: functional; settings: read-out: DIZ
Bacillus subtilis [7] = assay: Antibacterial activity against Bacillus subtilis assessed as growth inhibition at 0.5 mg/ml after 24 hrs by well diffusion method; format: functional; settings: read-out: DIZ
[8] = Cytotoxicity against human HL60 cells assessed as decrease in cell number after 24 hrs by MTT assay; format: functional, cell-based; settings: HL-60, 24 h
[9] = Cytotoxicity against mouse B16F10 cells assessed as decrease in cell number after 24 hrs by MTT assay; format: functional, cell-based; settings: B16-F10, 24 h
Klebsiella pneumoniae [10] = assay: Antibacterial activity against Klebsiella pneumoniae assessed as compound concentration required to complete growth inhibition at 8 hrs by tube dilution method; format: functional
Klebsiella pneumoniae [11] = assay: Antibacterial activity against Klebsiella pneumoniae assessed as growth inhibition at 0.5 mg/ml after 24 hrs by well diffusion method; format: functional; settings: read-out: DIZ
COLO 205 [12] = assay: Cytotoxicity against human COLO205 cells assessed as decrease in cell number after 24 hrs by MTT assay; format: functional, cell-based; settings: COLO 205, 24 h
HL-60 = assay: Cytotoxicity against human HL60 cells assessed as growth inhibition at 200 ug/ml after 24 hrs by MTT assay; format: functional, cell-based
COLO 205 [13] = assay: Cytotoxicity against human COLO205 cells assessed as growth inhibition at 200 ug/ml after 24 hrs by MTT assay; format: functional, cell-based

Structure (SMILES)	MIC (Micrococcus luteus [1]) [µg/mL]	IC50 [2] [µg/mL]	zone of inhibition at 500 µg/mL (Micrococcus luteus [3]) [mm]	MIC (Bacillus subtilis [4]) [µg/mL]	IC50 (THP-1) [µg/mL]	MIC (Escherichia coli [5]) [µg/mL]	zone of inhibition at 500 µg/mL (Escherichia coli [6]) [mm]	zone of inhibition at 500 µg/mL (Bacillus subtilis [7]) [mm]	IC50 [8] [µg/mL]	IC50 [9] [µg/mL]	MIC (Klebsiella pneumoniae [10]) [µg/mL]	zone of inhibition at 500 µg/mL (Klebsiella pneumoniae [11]) [mm]	IC50 (COLO 205 [12]) [µg/mL]	growth inhibition (GI) (HL-60)	growth inhibition (GI) (COLO 205 [13])
C=C(C(O)/C=C/C(C)=O)[C@@H]1C[C@@H](O)[C@@]2(C)[C@@H]1[C@@H]1[C@H](C)CC[C@@H]12 (stereo partly specified)	200 (≈ 657 µM)	13 (≈ 42.8 µM)	12.7	200 (≈ 657 µM)	38.9 (≈ 128 µM)	200 (≈ 657 µM)	17.3	12	42.3 (≈ 139 µM)	17 (≈ 55.9 µM)	100 (≈ 328 µM)	11.7	42.1 (≈ 138 µM)	–	–
C=C(C(=O)/C=C/C(C)(O)COC(C)=O)[C@@H]1C[C@@H](O)[C@@]2(C)[C@@H]1[C@@H]1[C@H](C)CC[C@@H]12 (stereo partly specified)	50 (≈ 133 µM)	9.58 (≈ 25.4 µM)	16.7	100 (≈ 266 µM)	15.2 (≈ 40.3 µM)	100 (≈ 266 µM)	17	15.7	51.8 (≈ 138 µM)	3.28 (≈ 8.71 µM)	100 (≈ 266 µM)	14	35.1 (≈ 93.3 µM)	–	–
C=C(C(=O)/C=C/C(C)(O)COC(C)=O)[C@@H]1C[C@@H](OC(C)=O)[C@@]2(C)[C@@H]1[C@@H]1[C@H](C)CC[C@@H]12 (stereo partly specified)	100 (≈ 239 µM)	8.8 (≈ 21 µM)	21.7	100 (≈ 239 µM)	33.9 (≈ 80.9 µM)	200 (≈ 478 µM)	23.7	21.7	35.6 (≈ 85.1 µM)	4.41 (≈ 10.5 µM)	200 (≈ 478 µM)	19.7	26.8 (≈ 64 µM)	–	–
C=C(C[C@@H](O)C=C(C)C)[C@@H]1C[C@@H](O)[C@@]2(C)[C@@H]1[C@@H]1[C@H](C)CC[C@@H]12	100 (≈ 328 µM)	51.3 (≈ 168 µM)	14	100 (≈ 328 µM)	53 (≈ 174 µM)	100 (≈ 328 µM)	12.3	13.7	41.6 (≈ 137 µM)	46.7 (≈ 153 µM)	50 (≈ 164 µM)	16.7	72.2 (≈ 237 µM)	–	–
C=C(CC(C=C(C)C)OC(C)=O)[C@@H]1C[C@@H](O)[C@@]2(C)[C@@H]1[C@@H]1[C@H](C)CC[C@@H]12 (stereo partly specified)	200 (≈ 577 µM)	60 (≈ 173 µM)	10.3	400 (≈ 1150 µM)	50.3 (≈ 145 µM)	200 (≈ 577 µM)	10.7	0	198 (≈ 572 µM)	73.2 (≈ 211 µM)	200 (≈ 577 µM)	11.7	87.3 (≈ 252 µM)	–	–
C=C(C/C=C/C(C)(C)O)[C@@H]1C[C@@H](O)[C@@]2(C)[C@@H]1[C@@H]1[C@H](C)CC[C@@H]12	100 (≈ 328 µM)	42.3 (≈ 139 µM)	16.3	100 (≈ 328 µM)	50 (≈ 164 µM)	100 (≈ 328 µM)	12.7	13.7	–	174 (≈ 572 µM)	100 (≈ 328 µM)	16	–	inactive	inactive
C=C(C(O)/C=C/C(C)(O)COC(C)=O)[C@@H]1C[C@@H](OC(C)=O)[C@@]2(C)[C@@H]1[C@@H]1[C@H](C)CC[C@@H]12 (mixture of isomers)	50	5.6	14.7	50	14.2	50	11.3	14.3	41	3.45	50	10.7	36.1	–	–
C=C(C(O)/C=C/C(C)(O)COC(C)=O)[C@@H]1CC(=O)[C@@]2(C)[C@@H]1[C@@H]1[C@H](C)CC[C@@H]12 (mixture of isomers)	200	43.6	0	100	52	100	0	0	43.9	58.5	200	0	–	–	inactive
C=C(CC(C=C(C)C)OC(C)=O)[C@@H]1C[C@@H](OC(C)=O)[C@@]2(C)[C@@H]1[C@@H]1[C@H](C)CC[C@@H]12 (mixture of isomers)	400	40.1	12.3	400	77.8	400	0	11.3	84.9	29	400	12.3	67.1	–	–
C=C(C/C=C/C(C)(C)O)[C@@H]1C[C@@H](OC(C)=O)[C@@]2(C)[C@@H]1[C@@H]1[C@H](C)CC[C@@H]12 (mixture of isomers)	200	48.5	15.3	200	44.6	400	13.3	15.3	39.9	47.1	200	16	64.7	–	–
C=C(C)C(O)CCC(=C)[C@@H]1C[C@@H](OC(C)=O)[C@@]2(C)[C@@H]1[C@@H]1[C@H](C)CC[C@@H]12 (mixture of isomers)	50	35.1	16.3	100	58.1	100	15.7	13.7	157	104	50	19	145	–	–
COc1cc([C@@H]2c3cc4c(cc3[C@@H](O[C@@H]3O[C@@H]5CO[C@@H](C)O[C@H]5[C@H](O)[C@H]3O)[C@H]3COC(=O)[C@H]23)OCO4)cc(OC)c1O [ETOPOSIDE]	–	2.27 (≈ 3.86 µM)	–	–	5.02 (≈ 8.53 µM)	–	–	–	2.12 (≈ 3.6 µM)	4.12 (≈ 7 µM)	–	–	1.07 (≈ 1.82 µM)	–	–
CN[C@@H]1[C@H](O[C@H]2[C@H](O[C@H]3[C@H](O)[C@@H](O)[C@H](N=C(N)N)[C@@H](O)[C@@H]3N=C(N)N)O[C@@H](C)[C@]2(O)C=O)O[C@@H](CO)[C@H](O)[C@H]1O.CN[C@@H]1[C@H](O[C@H]2[C@H](O[C@H]3[C@H](O)[C@@H](O)[C@H](N=C(N)N)[C@@H](O)[C@@H]3N=C(N)N)O[C@@H](C)[C@]2(O)C=O)O[C@@H](CO)[C@H](O)[C@H]1O.O=S(=O)(O)O.O=S(=O)(O)O.O=S(=O)(O)O [STREPTOMYCIN SULFATE]	6.25	–	28.7	6.25	–	6.25	30.3	28.7	–	–	6.25	27.3	–	–	–
